{
  "source": "patent US20240376098A1",
  "about": "“METHODS OF TREATMENT USING BCN057, BCN077 AND ANALOGS” (BCN Biosciences L.L.C., priority 2021, published 2024)",
  "key": {"Panc-1 cells": {"test_system": "Panc-1 cells", "assay": "Time lapse microscope images of pancreatic cancer cells after drug", "format": "cell-based, human", "conditions": "10 μM BCN057", "method": "FIG. 2A is a group of images showing pancreatic cancer cell growth after treatment with 10 μM BCN057 at time 0, 15, 30, 60, 120 and 240 minutes.\nFurther, these doses span the concentrations found in plasma during efficacy studies in rodents. Subsequently, microscope images appeared to show cell blebbing and fragmentation shortly after application of BCN057 indicating possible apoptosis. […] Blebbing and cell fragmentation was noted within 20 min of incubation with drug (as shown with the arrows). Cell fragmentation was seen between 20-30 minutes after exposure to the drug."}, "[1]": {"test_system": "c-Jun in non-transformed HEK298 epithelial cells", "assay": "c-Jun T 91/93 phosphorylation in non-transformed cells", "format": "cell-based", "conditions": "data not shown", "method": "Phosphorylation at T 91/93 in c-Jun was measured as a function of total c-Jun. Significant phosphorylation at T 91/93 was observed which has been reported to be associated with the activation of c-Jun's pro-apoptotic activity."}, "[2]": {"test_system": "LGR5 and BMI1 in Panc-1 cells", "assay": "qPCR of stem cell markers LGR5 and BMI1 in Panc-1 cells", "format": "cell-based, human", "conditions": "10 μm", "method": "QPCR: To compare the mRNA levels of BMI1 and LGR5 target genes in Panc-1 cells treated with BCN057 or vehicle. Quantitative PCR (qPCR) was used to measure the expression of the stem cell markers LGR5, and BMI1 which was detected by real-time PCR using the primer pairs listed in Table 1. Total RNA was extracted using TRIzol kit (Invitrogen, CA, USA)\nPrimers used for qPCR of LGR5 and BMI1 in pancreatic cancer cells Panc-1 treated with 10 μM of BCN057 or vehicle.\nOthers have implemented BMI1 as a key contributor to chemoresistance and invasiveness which is measurable in Panc-1."}, "Lgr5+ ISCs": {"test_system": "Lgr5+ ISCs", "assay": "Lgr5+ intestinal stem cells in 5FU treated Lgr5-Cre-ERT-GFP mice", "format": "in vivo", "conditions": "5FU treated mice receiving BCN057", "method": "5FU is a component of FOLFIRINOX and the active agent metabolized from Capecitabine (Xeloda®). To, examine the effect of BCN057 against chemo induced toxicity in Lgr5+ ISCs, Lgr5-Cre-ERT-GFP mice were pre-treated with 5FU as reported and then subjected to BCN057 treatment.\nStains of GI crypts with green=LGR5+ stem cells. Mice were treated with 5FU and 5FU+BCN057 for 5 days. BCN057 was administered for two extra days after 5FU treatment. Small intestine samples were harvested and stained for LGR5 at 3 days after the last 5FU injection. FIG. 5D is a histogram of the quantitation by % of LGR5+ cells remaining in […] sections at the crypt base showing prevention of 5-FU induced apoptosis in LGR5+ stem cells in GI."}, "[3]": {"test_system": "PD-1 expression on human T-lymphocytes", "assay": "Western blot of PD-1 on T-lymphocytes co-cultured with Panc-1 cells", "format": "cell-based", "conditions": "co-culture with Panc-1, 10 μM, sustained over 12 hours", "method": "(§1) Cell lines and cell culture: Panc-1 cells were cultured in DMEM medium supplemented with 10% Fetal Bovine Serum and maintained at 37° C.5% CO2. Human Peripheral Blood Pan-T Cells were cultured in serum free T cells expansion media with 10 ng/ml of rhIL-2, T-cell activator and expanded as per the manufacturer instructions. Panc-1 cells and T-Cells were grown and expanded separately in T75 flasks. For co-culture experiments with Panc-1 cell, 2.5 million T-cells per well were plated in the well using a 6 well plate. 2.5 million Panc-1 Cells were plated in the thinsert which was placed into the well of the 6 well plate in order to have the cells physically separated but share media. The cells were incubated for 24 hours at 37° C., 5% CO2. At 24 hours the media was replaced with media containing vehicle, or 10 uM BCN057 and were incubated for the following timepoints: 1 hr, 6 hr, 12 hr, 24 hrs. The Panc-1 cells were removed by gently scraping the cells from the thinsert.\nWestern Blot: Cells were harvested and lysed in cell lysis buffer on ice for 15 minutes and the lysate was centrifuged at 13,000 rpm at 4° C. for 10 minutes. The supernatant was transferred into a new tube for BCA protein quantification assay (Thermo Fisher Scientific) and the samples were normalized. 3× loading buffer (Cell Signaling) was added the protein sample and boiled for 5 minutes. The samples were used for SDS-PAGE analysis and transferred to nitrocellulose membrane. The membrane was blocked with 5% BSA at room temperature for 1 hour and incubated with primary antibody at 4° C. overnight. The membrane was washed with 1×TBST 5 minutes for 3 times and incubated with horseradish peroxidase-conjugated secondary antibody for 1 hour at room temperature. The protein was visualized by SuperSignal West Pico Stable Peroxide Solution (Thermo Fisher Scientific). The blot was visualized by chemiluminescence using a BioRad Versadoc Imaging System.\nBCN057 and Immune Checkpoint blockade: An emerging method of treatment for many forms of cancer, including PDAC, is immune checkpoint inhibitors. […]"}, "[4]": {"test_system": "PDL-1 expression on Panc-1 cells", "assay": "Western blot of PDL-1 on Panc-1 cells co-cultured with T-lymphocytes", "format": "cell-based, human", "conditions": "co-culture, 2.5, 5, 7.5 and 10 hrs", "method": "as §1\nWestern Blot: Cells were harvested and lysed in cell lysis buffer on ice for 15 minutes and the lysate was centrifuged at 13,000 rpm at 4° C. for 10 minutes. The supernatant was transferred into a new tube for BCA protein quantification assay (Thermo Fisher Scientific) and the samples were normalized. 3× loading buffer (Cell Signaling) was added the protein sample and boiled for 5 minutes. […]"}, "[5]": {"assay": "Solubility in aqueous formulations", "format": "physicochemical", "conditions": "30 wt % Captisol (SBE-beta-CD) and 100 mM MSA"}, "[6]": {"test_system": "KRASG13R mutant MC38 tumor cell line", "conditions": "cited from earlier work"}},
  "data": [
    {"smiles": "COc1ccc2cc(-c3nc4ccc(C)cn4c3NCc3ccco3)c(=O)[nH]c2c1", "note": "[BCN057, 3-[(Furan-2-ylmethyl)-amino]-2-(7-methoxy-2-oxo-1,2-dihydro-quinolin-3-yl)-6-methyl-imidazo[1,2-a]pyridin-1-ium]", "values": [
      {"measurement": "Time at which cell fragmentation was seen after exposure", "setting": "Panc-1 cells", "result": "20 to 30", "unit": "min"},
      {"measurement": "Time to blebbing and cell fragmentation", "setting": "Panc-1 cells", "result": "≤ 20", "unit": "min"},
      {"measurement": "c-Jun pro-apoptotic activity (T 91/93 phosphorylation)", "setting": "[1]", "result": "not found to be induced"},
      {"measurement": "Abundance of LGR5 and BMI1 cell populations", "setting": "[2]", "result": "no significant increase in the abundance"},
      {"measurement": "Lgr5+ve ISCs in jejunal section", "setting": "Lgr5+ ISCs", "result": "significant presence of Lgr5+ve ISCs"},
      {"measurement": "PD-1 expression on human T-lymphocytes", "setting": "[3]", "result": "decreased significantly within the first hour"},
      {"measurement": "PDL-1 expression on Panc-1 cells", "setting": "[4]", "result": "not appreciably changed"},
      {"measurement": "Solubility", "setting": "[5]", "result": "excellent solubility at up to pH 4.1 or higher"},
      {"measurement": "Tolerated radiation dose", "setting": "[6]; BCN057 with radiation treatment versus radiation alone", "result": "able to tolerate much higher radiation doses"},
      {"measurement": "Tumor burden", "setting": "[6]; mice receiving BCN057 versus control", "result": "significantly lower tumor burden than control"}
    ]}
  ]
}
